Earlier results on 1 compound are cited in patent US20230382903A1, “SMALL MOLECULE MODULATORS OF GP130 SIGNALING PATHWAYS, TOPICAL FORMULATIONS AND METHOD OF USE THEREOF” (CarthroniX, Inc., priority 2020, published 2023).

The structures appear in SMILES notation.

In data set [1] the test system is cartilage degeneration. Particulars: rat model of OA.
The target in data set [2] is T1, gp130 (Homo sapiens, UniProt P40189).
T1 sequence (P40189 23-918): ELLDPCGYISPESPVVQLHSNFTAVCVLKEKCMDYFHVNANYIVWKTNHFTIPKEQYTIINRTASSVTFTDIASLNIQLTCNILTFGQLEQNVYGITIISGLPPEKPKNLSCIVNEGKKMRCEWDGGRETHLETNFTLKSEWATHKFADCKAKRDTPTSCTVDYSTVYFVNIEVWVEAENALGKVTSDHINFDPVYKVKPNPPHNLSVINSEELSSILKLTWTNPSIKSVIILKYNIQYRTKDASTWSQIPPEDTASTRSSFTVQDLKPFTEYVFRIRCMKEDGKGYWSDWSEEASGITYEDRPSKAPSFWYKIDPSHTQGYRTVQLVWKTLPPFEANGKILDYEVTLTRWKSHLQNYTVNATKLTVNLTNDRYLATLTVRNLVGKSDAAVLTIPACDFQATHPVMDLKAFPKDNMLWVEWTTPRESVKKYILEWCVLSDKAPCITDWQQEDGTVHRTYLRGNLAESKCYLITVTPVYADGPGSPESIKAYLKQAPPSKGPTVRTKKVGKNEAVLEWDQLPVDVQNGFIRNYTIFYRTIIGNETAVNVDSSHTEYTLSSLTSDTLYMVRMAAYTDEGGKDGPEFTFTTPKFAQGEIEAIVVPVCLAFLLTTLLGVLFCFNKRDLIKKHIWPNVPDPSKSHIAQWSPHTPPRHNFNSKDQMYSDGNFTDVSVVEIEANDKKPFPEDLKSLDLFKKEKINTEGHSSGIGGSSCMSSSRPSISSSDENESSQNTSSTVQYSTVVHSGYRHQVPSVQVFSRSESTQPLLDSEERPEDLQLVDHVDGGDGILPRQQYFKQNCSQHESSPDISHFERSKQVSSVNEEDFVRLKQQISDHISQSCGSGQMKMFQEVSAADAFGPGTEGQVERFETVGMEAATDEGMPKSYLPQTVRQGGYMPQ

In the case of `Brc1ccc(Nc2nc(-c3ccccc3)cs2)cc1` [RCGD 423], the “prevention of cartilage degeneration” value in data set [1] is on record as “remarkable ability to prevent cartilage degeneration”. The “interaction with gp130” value in data set [2] (in vitro) is on record as “interacts with the extracellular region of gp130”. In data set [2] (ligand-independent), the “formation of gp130 homodimers” value is listed as “promotes the formation of active, ligand-independent gp130 homodimers”.
